From patent publication US6376518B1, “Acyl derivatives of 4-demethylpenclomedine, use thereof and preparation thereof” (Southern Research Institute, priority 1999, dated 2002)
Where two headings read alike, the source gives them in different places.

How the values were obtained:
human MX-1 mammary tumor [1] = assay: In vivo antitumor activity vs s.c.-implanted human MX-1 mammary tumor xenograft in athymic mice; settings: sc MX-1, Days 12-16
human MX-1 mammary tumor [2] = assay: In vivo antitumor activity vs i.c.-implanted human MX-1 mammary tumor xenograft in athymic mice; settings: ic MX-1; for Tumor-Free-Surv/Total / Median % ILS (dying mice only): Days 1-5
P388/CPA leukemia = assay: Antitumor activity against IP-implanted P388/CPA leukemia in mice; format: in vivo, murine; settings: P388/CPA, Q1D × 5 (1)
P388/L-PAM leukemia = settings: for MEDIAN DAY OF DEATH: dying mice only
P388/BCNU leukemia = assay: Antitumor activity against IP-implanted P388/BCNU leukemia in mice; settings: P388/BCNU, Q1D × 5 (1); for MEDIAN DAY OF DEATH: dying mice only
P388/0 leukemia = settings: P388/0; for MEDIAN DAY OF DEATH: dying mice only
[3] = optimal doses (LD10 or less), schedule QD1-5, administered LP.
[4] = P388/L-PAM, IP 60.0 mg/kg/dose, Q1D × 5 (1)
[5] = P388/L-PAM, IP 90.0 mg/kg/dose, Q1D × 5 (1)
[6] = P388/L-PAM, IP 135.0 mg/kg/dose, Q1D × 5 (1)
[7] = IP 60.0 mg/kg/dose, Q1D × 5 (1)
[8] = IP 90.0 mg/kg/dose, Q1D × 5 (1)
[9] = IP 135.0 mg/kg/dose, Q1D × 5 (1)
[10] = P388/L-PAM, IP 15.0 mg/kg/dose, Q1D × 1 (1)
[11] = P388/L-PAM, IP 20.0 mg/kg/dose, Q1D × 1 (1)
[12] = IP 20.0 mg/kg/dose, Q1D × 1 (1)

COc1nc(C(Cl)(Cl)Cl)c(Cl)c(OC(=O)c2ccco2)c1Cl [DM-F-PEN]
Tumor-Free-Surv/Total (human MX-1 mammary tumor [1]; IP 90 mg/kg/dose): 5/5 | activity against i.c.-implanted tumor in comparison to PEN and DM-PEN (in words) (human MX-1 mammary tumor [2]): significant activity | Tumor-Free-Surv/Total (human MX-1 mammary tumor [2]; IP 135 mg/kg/dose): 2/5 | Survivors (human MX-1 mammary tumor [2]; [3]): 2/5

COc1nc(C(Cl)(Cl)Cl)c(Cl)c(OC(=O)CI)c1Cl [DM-IA-PEN]
Dose (mg/kg) with observed lethality level (human MX-1 mammary tumor [1]; IP 60 mg/kg/dose): 60 (LD40) | Tumor-Free-Surv/Total (human MX-1 mammary tumor [1]; IP 60 mg/kg/dose): 1/5

COc1nc(C(Cl)(Cl)Cl)c(Cl)c(OC(=O)c2ccncc2)c1Cl [DM-IN-PEN]
Dose (mg/kg) with observed lethality level (human MX-1 mammary tumor [1]; IP 90 mg/kg/dose): 90 (LD20) | Tumor-Free-Surv/Total (human MX-1 mammary tumor [1]; IP 90 mg/kg/dose): 3/5

COCC(=O)Oc1c(Cl)c(OC)nc(C(Cl)(Cl)Cl)c1Cl [DM-MA-PEN]
T-C (human MX-1 mammary tumor [1]; oral (gavage) 135 mg/kg/dose): >41.0 days | Tumor-Free-Surv/Total (human MX-1 mammary tumor [1]; oral (gavage) 135 mg/kg/dose): 5/5 | activity against i.c.-implanted tumor in comparison to PEN and DM-PEN (in words) (human MX-1 mammary tumor [2]): significant activity | Tumor-Free-Surv/Total (human MX-1 mammary tumor [2]; IP 90 mg/kg/dose): 1/5 | Survivors (human MX-1 mammary tumor [2]; [3]): 1/5 | Median % ILS (dying mice only) (human MX-1 mammary tumor [2]; oral (gavage) 90 mg/kg/dose): +110% | Tumor-Free-Surv/Total (human MX-1 mammary tumor [2]; oral (gavage) 90 mg/kg/dose): 1/5

COc1nc(C(Cl)(Cl)Cl)c(Cl)c(OC(=O)c2ccc([N+](=O)[O-])cc2)c1Cl [DM-NB-PEN]
Tumor-Free-Surv/Total (human MX-1 mammary tumor [1]; IP 135 mg/kg/dose): 5/5

COc1nc(C(Cl)(Cl)Cl)c(Cl)c(OC(=O)c2ccc([N+](=O)[O-])o2)c1Cl [DM-NF-PEN]
Tumor-Free-Surv/Total (human MX-1 mammary tumor [1]; IP 90 mg/kg/dose): 4/5 | Median % ILS (dying mice only) (human MX-1 mammary tumor [2]; IP 135 mg/kg/dose): +59%

CCCCCCCC(=O)Oc1c(Cl)c(OC)nc(C(Cl)(Cl)Cl)c1Cl [DM-O-PEN]
activity against i.c.-implanted tumor in comparison to PEN and DM-PEN (in words) (human MX-1 mammary tumor [2]): significant activity | Tumor-Free-Surv/Total (human MX-1 mammary tumor [2]; IP 90 mg/kg/dose): 0/5 | Survivors (human MX-1 mammary tumor [2]; [3]): 0/5

COc1nc(C(Cl)(Cl)Cl)c(Cl)c(O)c1Cl [DM-PEN, 3,5-dichloro-2-methoxy-4-hydroxy-6-(trichloromethyl)pyridine]
50-DAY SURV/TOTAL (P388/CPA leukemia; IP 60.0 mg/kg/dose): 0/6 | % ILS (P388/CPA leukemia; IP 60.0 mg/kg/dose): +22% | APPROX. NET LOG10 CHANGE IN TUMOR BURDEN AT END OF Rx (P388/CPA leukemia; IP 60.0 mg/kg/dose): +0.9 | 50-DAY SURV/TOTAL (P388/CPA leukemia; IP 90.0 mg/kg/dose): 0/6 | % ILS (P388/CPA leukemia; IP 90.0 mg/kg/dose): +54% | APPROX. NET LOG10 CHANGE IN TUMOR BURDEN AT END OF Rx (P388/CPA leukemia; IP 90.0 mg/kg/dose): −1.1 | MEDIAN DAY OF DEATH (P388/CPA leukemia; IP 90.0 mg/kg/dose, dying mice only): 17.0 | 50-DAY SURV/TOTAL (P388/CPA leukemia; IP 135.0 mg/kg/dose): 0/6 | % ILS (P388/CPA leukemia; IP 135.0 mg/kg/dose): +31% | APPROX. NET LOG10 CHANGE IN TUMOR BURDEN AT END OF Rx (P388/CPA leukemia; IP 135.0 mg/kg/dose): +0.3 | 50-DAY SURV/TOTAL (P388/L-PAM leukemia; [4]): 0/6 | % ILS (P388/L-PAM leukemia; [4]): −4% | APPROX. NET LOG10 CHANGE IN TUMOR BURDEN AT END OF Rx (P388/L-PAM leukemia; [4]): +1.6 | 50-DAY SURV/TOTAL (P388/L-PAM leukemia; [5]): 0/6 | % ILS (P388/L-PAM leukemia; [5]): −8% | APPROX. NET LOG10 CHANGE IN TUMOR BURDEN AT END OF Rx (P388/L-PAM leukemia; [5]): +1.6 | MEDIAN DAY OF DEATH (P388/L-PAM leukemia; [5]): 13.0 | 50-DAY SURV/TOTAL (P388/L-PAM leukemia; [6]): 0/6 | % ILS (P388/L-PAM leukemia; [6]): −4% | APPROX. NET LOG10 CHANGE IN TUMOR BURDEN AT END OF Rx (P388/L-PAM leukemia; [6]): +1.6 | Toxicity / lethality level at the dosage (LD) (P388/L-PAM leukemia; [6]): LD33 | activity in the P388/L-PAM tumor model (in words) (P388/L-PAM leukemia; mouse, in vivo): none of the three showed significant activity | 50-DAY SURV/TOTAL (P388/BCNU leukemia; IP 60.0 mg/kg/dose): 0/6 | % ILS (P388/BCNU leukemia; IP 60.0 mg/kg/dose): +33% | APPROX. NET LOG10 CHANGE IN TUMOR BURDEN AT END OF Rx (P388/BCNU leukemia; IP 60.0 mg/kg/dose): +0.8 | MEDIAN DAY OF DEATH (P388/BCNU leukemia; IP 60.0 mg/kg/dose): 12.0 | 50-DAY SURV/TOTAL (P388/BCNU leukemia; IP 90.0 mg/kg/dose): 0/6 | % ILS (P388/BCNU leukemia; IP 90.0 mg/kg/dose): +55% | APPROX. NET LOG10 CHANGE IN TUMOR BURDEN AT END OF Rx (P388/BCNU leukemia; IP 90.0 mg/kg/dose): −0.8 | MEDIAN DAY OF DEATH (P388/BCNU leukemia; IP 90.0 mg/kg/dose): 14.0 | 50-DAY SURV/TOTAL (P388/BCNU leukemia; IP 135.0 mg/kg/dose): 0/6 | % ILS (P388/BCNU leukemia; IP 135.0 mg/kg/dose): +88% | APPROX. NET LOG10 CHANGE IN TUMOR BURDEN AT END OF Rx (P388/BCNU leukemia; IP 135.0 mg/kg/dose): −3.1 | Toxicity / lethality level at the dosage (LD) (P388/BCNU leukemia; IP 135.0 mg/kg/dose): LD17 | MEDIAN DAY OF DEATH (P388/BCNU leukemia; IP 135.0 mg/kg/dose): 17.0 | Median % ILS (based on dying mice only) (human MX-1 mammary tumor [2]; [3]): 60% | Survivors (human MX-1 mammary tumor [2]; [3]): 0/5 | 50-DAY SURV/TOTAL (P388/0 leukemia; [7]): 0/6 | % ILS (P388/0 leukemia; [7]): +45% | APPROX. NET LOG10 CHANGE IN TUMOR BURDEN AT END OF Rx (P388/0 leukemia; [7]): −0.8 | MEDIAN DAY OF DEATH (P388/0 leukemia; [7]): 16.0 | 50-DAY SURV/TOTAL (P388/0 leukemia; [8]): 0/6 | % ILS (P388/0 leukemia; [8]): +72% | APPROX. NET LOG10 CHANGE IN TUMOR BURDEN AT END OF Rx (P388/0 leukemia; [8]): −3.1 | MEDIAN DAY OF DEATH (P388/0 leukemia; [8]): 19.0 | 50-DAY SURV/TOTAL (P388/0 leukemia; [9]): 0/6 | % ILS (P388/0 leukemia; [9]): −23% | Toxicity / lethality level at the dosage (LD) (P388/0 leukemia; [9]): TOXIC | MEDIAN DAY OF DEATH (P388/0 leukemia; [9]): 8.5

COc1nc(C(Cl)(Cl)Cl)c(Cl)c(OC(=O)c2c(Cl)cc(Cl)cc2Cl)c1Cl [DM-TCB-PEN]
Median % ILS (dying mice only) (human MX-1 mammary tumor [2]; IP 135 mg/kg/dose): +92% | Tumor-Free-Surv/Total (human MX-1 mammary tumor [2]; IP 135 mg/kg/dose): 1/5

N[C@@H](Cc1ccc(N(CCCl)CCCl)cc1)C(=O)O [L-PAM (melphalan), melphalan]
50-DAY SURV/TOTAL (P388/L-PAM leukemia; [10]): 0/6 | % ILS (P388/L-PAM leukemia; [10]): +14% | APPROX. NET LOG10 CHANGE IN TUMOR BURDEN AT END OF Rx (P388/L-PAM leukemia; [10]): −1.8 | MEDIAN DAY OF DEATH (P388/L-PAM leukemia; [10]): 18.0 | 50-DAY SURV/TOTAL (P388/L-PAM leukemia; [11]): 0/6 | % ILS (P388/L-PAM leukemia; [11]): +14% | APPROX. NET LOG10 CHANGE IN TUMOR BURDEN AT END OF Rx (P388/L-PAM leukemia; [11]): −1.8 | MEDIAN DAY OF DEATH (P388/L-PAM leukemia; [11]): 18.0 | 50-DAY SURV/TOTAL (P388/0 leukemia; IP 15.0 mg/kg/dose, Q1D × 1 (1)): 6/6 | 50-DAY SURV/TOTAL (P388/0 leukemia; [12]): 6/6 | % ILS (P388/0 leukemia; [12]): +209% | APPROX. NET LOG10 CHANGE IN TUMOR BURDEN AT END OF Rx (P388/0 leukemia; [12]): ca −8.8 | MEDIAN DAY OF DEATH (P388/0 leukemia; [12]): 34.0
